One molecule from patent publication US10016379B2, “Method of treatment for third spacing” (priority 2015, dated 2018) can be followed below.

Series [1] has as its system patient's asthma, fluid retention, fatigue, weight loss and photo dermatitis. Description: Example 1: patient case, furosemide stopped and replaced with ethacrynic acid. The series is classed as in vivo. Conditions: one patient. From the text:
In this case it is thought that decreasing the medications for allergies the patient was on may have contributed to the unmasking of an allergy to one of the components in the trade name compound.

The test system of series [2] is third spacing of fluid refractory to sulfa/sulfonamide. Briefly: Example 2: patient case, sulfa/sulfonamide compound stopped and patient placed on ethacrynic acid. Format: in vivo. Conditions: one patient; in one month; ethacrynic acid for a short period while stopping the sulfa/sulfonamide compound. From the text:
A patient who suffered from a mental impairment but knew they were allergic to sulfa/sulfonamide compounds (their blood pressure fell), had clinical evidence of edema even though the patient was on a potent sulfa/sulfonamide medication. The patient was placed on ethacrynic acid for a short period of time while stopping the sulfa/sulfonamide compound and in one month, 40 pounds of fluid was removed. In this case, the patient not only had clinical evidence of edema, they also had third spacing of fluid refractory to sulfa/sulfonamide they were on. Unfortunately the patient was lost to follow up.

Turning to `C=C(CC)C(=O)c1ccc(OCC(=O)O)c(Cl)c1Cl` [ethacrynic acid], the laboratory studies entry in series [1] (after replacing furosemide with ethacrynic acid) is on record as “resolution of pyuria”. Moreover, the “asthma, fluid retention, fatigue, weight loss and photo dermatitis” value in series [1] (after stopping furosemide and replacing it with ethacrynic acid) is “improve within one weeks-time”. For the same molecule, the “use of other medications for asthma, myalgia, dyspepsia and other symptoms” value in series [1] (during ethacrynic acid treatment) is “less use or even elimination of other medications”. For the same molecule, in series [1] (trade name compound), the “tolerability (reason the patient could not continue the medication)” value was “adverse reaction to one of the constituents in the trade name compound”. The molecule further displayed a fluid removed in series [2] of 40 pounds.
